Among the test systems are RXF 393 renal; OVCAR-5 ovarian; KM12 colon; NCI-H226 lung; LOX IMVI melanoma; NCI/ADR-RES ovarian; SF-268 CNS; MALME-3M melanoma; HOP-92 NSCLC; ACHN renal.
Assay in all cases: DTP human tumour cell line panel, 48 h

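48-hour exposure; five concentrations; linearly interpolated endpoints. At the TGI there is no net growth.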

In general, TGI refers to the concentration giving total growth inhibition. Lower therefore signals greater sensitivity of the cells.

For `CC(C)c1cc(C(C)C)c(B(c2ccccc2)c2ccccc2)c(C(C)C)c1Br`, the TGI in the test with RXF 393 renal, in the test with OVCAR-5 ovarian, in the test with KM12 colon, in the test with NCI-H226 lung, in the test on LOX IMVI melanoma and with NCI/ADR-RES ovarian was above 100 µM throughout. For the same compound, the concentration for total growth inhibition (TGI) in the test on SF-268 CNS, in the test with MALME-3M melanoma, in the test on HOP-92 NSCLC and in the test on ACHN renal was above 100 µM throughout.
`Cc1cc(=O)oc2c(CN(CCCl)CCCl)c(O)ccc12`: the concentration for total growth inhibition (TGI) in the test on RXF 393 renal, with OVCAR-5 ovarian, with KM12 colon, in the test on NCI-H226 lung, with LOX IMVI melanoma and in the test on NCI/ADR-RES ovarian was above 100 µM in each case. Besides, the total growth inhibition concentration (TGI) in the test with SF-268 CNS, in the test with MALME-3M melanoma, with HOP-92 NSCLC and with ACHN renal was above 100 µM throughout.
As for `Cc1cnc2cc(Cl)ccc2c1SCC(=O)O`, the total growth inhibition concentration (TGI) with RXF 393 renal, with OVCAR-5 ovarian, in the test with KM12 colon, in the test on NCI-H226 lung, in the test on LOX IMVI melanoma and in the test with NCI/ADR-RES ovarian was above 100 µM each time. Also, the TGI in the test on SF-268 CNS, in the test with MALME-3M melanoma, in the test on HOP-92 NSCLC and in the test with ACHN renal was above 100 µM throughout.
Consider `[O-][n+]1cc(SCc2ccccc2)ncc1SCc1ccccc1`, for which the total growth inhibition concentration (TGI) in the test on RXF 393 renal, in the test with OVCAR-5 ovarian, in the test on KM12 colon, in the test with NCI-H226 lung, in the test with LOX IMVI melanoma and with NCI/ADR-RES ovarian was above 10 µM in each case. For the same compound, the TGI in the test on SF-268 CNS, in the test on MALME-3M melanoma, in the test with HOP-92 NSCLC and with ACHN renal was above 10 µM each time.
With `COc1ccc(C2CCc3c(cnc4nc(N)nc(N)c34)C2)cc1` (centres undefined), the TGI in the test with RXF 393 renal is 42.6 µM; with OVCAR-5 ovarian, above 100 µM; with KM12 colon it was above 100 µM; in the test on NCI-H226 lung, above 100 µM; in the test with LOX IMVI melanoma it was above 100 µM; in the test with NCI/ADR-RES ovarian, above 100 µM. The TGI is above 100 µM in the test on SF-268 CNS, above 100 µM in the test with MALME-3M melanoma, 12.3 µM with HOP-92 NSCLC and 51 µM in the test with ACHN renal.
As to `COc1ccc2c(-c3csc(-c4c[nH]c5ccccc45)n3)c[nH]c2c1`, the total growth inhibition concentration (TGI) is 17.9 µM in the test with RXF 393 renal; above 50.7 µM with OVCAR-5 ovarian; 14.8 µM in the test on KM12 colon; 45.4 µM in the test with NCI-H226 lung; above 31.9 µM in the test with LOX IMVI melanoma; above 81.6 µM with NCI/ADR-RES ovarian. The concentration for total growth inhibition (TGI) with SF-268 CNS worked out at 26 µM; in the test on MALME-3M melanoma it was 32.1 µM; with HOP-92 NSCLC, 26.4 µM; in the test with ACHN renal, 16.9 µM.
Consider `O=c1[nH]c(=O)c2c([nH]1)[nH]c1ccccc12`, for which the TGI in the test on RXF 393 renal, in the test on OVCAR-5 ovarian, with KM12 colon, with NCI-H226 lung, in the test on LOX IMVI melanoma and in the test with NCI/ADR-RES ovarian was above 100 µM in each case. The TGI in the test on SF-268 CNS, in the test with MALME-3M melanoma, in the test with HOP-92 NSCLC and with ACHN renal was above 100 µM in each case.
For the compound `CC1[C@@H]2C[C@@H]3O[C@@]34[C@H]3CCC5Cc6nc7c(nc6C[C@@]5(C)C3(O)CC(=O)[C@@]24CO[C@]12OC(C)(C)CC2O)CC1CC[C@@H]2C3=C[C@H]4O[C@@]5(O[C@@](C)(CO)C[C@@H]5O)C(C)[C@@]4(O)[C@]3(C)[C@@H](O)CC2[C@]1(C)C7` (some centres undefined), the TGI in the test with RXF 393 renal is 0.0296 µM; in the test with OVCAR-5 ovarian, 0.218 µM; in the test with KM12 colon, 0.893 µM; in the test with NCI-H226 lung, above 3.52 µM; in the test with LOX IMVI melanoma, above 3.52 µM; in the test on NCI/ADR-RES ovarian, above 3.52 µM. In addition, the values for the TGI with SF-268 CNS, with MALME-3M melanoma and with HOP-92 NSCLC were 0.683 µM, 0.247 µM and 0.976 µM, respectively.
For `C[S+](C)C1(c2ccccc2)C(=O)c2ccccc2C1=O`, the TGI with RXF 393 renal was above 100 µM; in the test with OVCAR-5 ovarian it was above 89.7 µM; in the test with KM12 colon it was above 100 µM; in the test with NCI-H226 lung, above 100 µM; in the test on LOX IMVI melanoma, above 72.7 µM; in the test with NCI/ADR-RES ovarian, above 100 µM. The total growth inhibition concentration (TGI) with SF-268 CNS, in the test with MALME-3M melanoma, with HOP-92 NSCLC and in the test with ACHN renal was above 100 µM throughout.
As to `CC(=O)N1C(=O)/C(=C\C(=O)c2ccc(Cl)cc2)c2ccccc21`, the concentration for total growth inhibition (TGI) amounted to 32.6 µM with RXF 393 renal; 48.4 µM in the test on OVCAR-5 ovarian; 35.3 µM in the test on KM12 colon; 44.5 µM in the test with NCI-H226 lung; 5.9 µM with LOX IMVI melanoma; 53.5 µM with NCI/ADR-RES ovarian. Further, the TGI is 40.5 µM in the test with SF-268 CNS, 32.6 µM in the test with MALME-3M melanoma, 35 µM in the test on HOP-92 NSCLC and 23.6 µM in the test on ACHN renal.
On to `O=C1CSC(c2cc3cc(Br)ccc3nc2Cl)N1c1ccc(F)c(Cl)c1` (centres undefined), for which the TGI in the test on RXF 393 renal, in the test with OVCAR-5 ovarian, in the test with KM12 colon, in the test on NCI-H226 lung, with LOX IMVI melanoma and in the test on NCI/ADR-RES ovarian was above 50 µM in each case. The TGI in the test with SF-268 CNS, in the test on MALME-3M melanoma, with HOP-92 NSCLC and in the test on ACHN renal was above 50 µM throughout.
In the case of `NS(=O)(=O)c1ccc(NS(=O)(=O)c2ccc(NC(=O)N(c3ccccc3)c3ccccc3)cc2)cc1`, the TGI was 80.9 µM in the test with RXF 393 renal; above 100 µM with OVCAR-5 ovarian; above 100 µM in the test on KM12 colon; above 100 µM in the test on NCI-H226 lung; above 100 µM in the test on LOX IMVI melanoma; above 100 µM in the test with NCI/ADR-RES ovarian. The TGI in the test on SF-268 CNS, in the test on MALME-3M melanoma, in the test with HOP-92 NSCLC and with ACHN renal was above 100 µM in each case.

Values taken from PubChem BioAssay (NCI).
